Our source for the GI50 values is ChEMBL document CHEMBL3352636, “Rational design, synthesis and anti-proliferative evaluation of novel benzosuberone tethered with hydrazide-hydrazones” (2014).

Format in all cases: functional
One assay has as its system HeLa. Nature of the assay: Growth inhibition of human HeLa cells after 48 hrs by SRB assay.
The nature of assay [1]: Growth inhibition of human MiaPaCa cells after 48 hrs by SRB assay. The note with it: MIA PaCa-2, 48 h. (In general: Sulforhodamine B stains cellular protein and so reports cell mass.)
The subject of the next assay is MDA-MB-231. In words: Growth inhibition of human MDA-MB-231 cells after 48 hrs by SRB assay. The note with it: MDA-MB-231, 48 h.
The nature of assay [2]: Growth inhibition of human IMR32 cells after 48 hrs by SRB assay. The note with it: IMR-32, 48 h.

By GI50 is commonly meant the concentration at which growth is held to half of that of the control. A higher GI50 goes with less potent growth inhibition. Turning to `Cc1ccc(C(=O)N/N=C/C2=C(Cl)c3cc(C)c(C)cc3CCC2)cc1`, the GI50 in the assay on HeLa was over 100000 nM; in assay [1] it was 28800 nM; with MDA-MB-231 it was 32900 nM; in assay [2] it was 100 nM.
The corresponding values for `Cc1cc2c(cc1C)C(Cl)=C(/C=N/NC(=O)c1cccc(I)c1)CCC2` are over 100000 nM, 4300 nM, 1200 nM and 1900 nM.
In the case of `Cc1cc2c(cc1C)C(Cl)=C(/C=N/NC(=O)c1ccccc1)CCC2`, the GI50 with HeLa was over 100000 nM; in assay [1], over 100000 nM; with MDA-MB-231, 2500 nM; in assay [2], 1800 nM.
As for `Cc1cc2c(cc1C)C(Cl)=C(/C=N/NC(=O)c1cccc(Cl)c1)CCC2`, the GI50 in the assay on HeLa is 770 nM; in assay [1] it was 33600 nM; with MDA-MB-231 it was 1930 nM; in assay [2], over 100000 nM.
The corresponding values for `Cc1cc2c(cc1C)C(Cl)=C(/C=N/NC(=O)c1cccc3ccccc13)CCC2` are 1000 nM, 4600 nM, 710 nM and 3900 nM.
`CC(=O)O[C@H]1C(=O)[C@@]2(C)[C@H]([C@H](OC(=O)c3ccccc3)[C@]3(O)C[C@H](OC(=O)[C@H](O)[C@@H](NC(=O)c4ccccc4)c4ccccc4)C(C)=C1C3(C)C)[C@]1(OC(C)=O)CO[C@@H]1C[C@@H]2O` [PACLITAXEL]: the concentration for 50% growth inhibition (GI50) in the assay with HeLa was determined as 25 nM; in assay [1] it was 56 nM; with MDA-MB-231 it was 91 nM; in assay [2] it was 75 nM.
On to `O=C(N/N=C/C1=C(Cl)c2ccccc2CCC1)c1cccc(C(F)(F)F)c1`, for which the GI50 was determined as 16300 nM in the assay with HeLa, 5800 nM in assay [1], 94300 nM in the assay on MDA-MB-231 and 2000 nM in assay [2].
Consider `O=C(N/N=C/C1=C(Cl)c2ccccc2CCC1)c1ccccc1`, for which the GI50 in the assay on HeLa is over 100000 nM; in assay [1], 1000 nM; with MDA-MB-231 it was 11100 nM; in assay [2], 16100 nM.
The corresponding values for `Cc1cc2c(cc1C)C(Cl)=C(/C=N\NC(=O)C1=C(Cl)c3ccccc3CCC1)CCC2` are 4500 nM, 210 nM, 3100 nM and 670 nM.
As to `COc1cccc2c1C(=O)c1c(O)c3c(c(O)c1C2=O)C[C@@](O)(C(=O)CO)C[C@@H]3O[C@H]1C[C@H](N)[C@H](O)[C@H](C)O1` [DOXORUBICIN], the GI50 turned out to be 73 nM with HeLa, 97 nM in assay [1], 85 nM in the assay on MDA-MB-231 and 23 nM in assay [2].
The corresponding values for `Cc1cc2c(cc1C)C(Cl)=C(C(=O)N/N=C\c1ccc(F)cc1)CCC2` are 2200 nM, 360 nM, 840 nM and 3500 nM.
Turning to `O=C(N/N=C/C1=C(Cl)c2ccccc2CCC1)c1cccnc1`, the GI50 is 7500 nM with HeLa, 11700 nM in assay [1], 91700 nM in the assay on MDA-MB-231 and 150 nM in assay [2].
As to `Cc1cc2c(cc1C)C(Cl)=C(/C=N/NC(=O)c1ccccc1N)CCC2`, the GI50 was over 100000 nM with HeLa, 810 nM in assay [1], 3700 nM with MDA-MB-231 and 36300 nM in assay [2].
Regarding `Cc1cc2c(cc1C)C(Cl)=C(C(=O)N/N=C\C1=C(Cl)c3ccccc3CCC1)CCC2`, the GI50 in the assay with HeLa was over 100000 nM; in assay [1], 6000 nM; in the assay with MDA-MB-231, 7700 nM; in assay [2], 2400 nM.
Turning to `O=C(N/N=C\c1ccc(F)cc1)C1=C(Cl)c2ccccc2CCC1`, the GI50 in the assay with HeLa was 1300 nM; in assay [1], under 10 nM; in the assay on MDA-MB-231 it was 410 nM; in assay [2] it was 270 nM.
With `COc1cc(C(=O)N/N=C/C2=C(Cl)c3cc(C)c(C)cc3CCC2)c([N+](=O)[O-])cc1OC`, the GI50 turned out to be 2000 nM in the assay with HeLa, 1600 nM in assay [1], 220 nM in the assay with MDA-MB-231 and 13800 nM in assay [2].
For `Cc1ccc(/C=N\NC(=O)C2=C(Cl)c3ccccc3CCC2)cc1`, the GI50 was 2300 nM in the assay on HeLa, under 10 nM in assay [1], 260 nM in the assay with MDA-MB-231 and 140 nM in assay [2].
For the molecule `COc1ccc(/C=N\NC(=O)C2=C(Cl)c3ccccc3CCC2)c(OC)c1`, the concentration for 50% growth inhibition (GI50) came out at 38500 nM with HeLa, 2700 nM in assay [1], 290 nM in the assay with MDA-MB-231 and 14900 nM in assay [2].
For the molecule `Cc1cc2c(cc1C)C(Cl)=C(/C=N/NC(=O)c1cccc(C(F)(F)F)c1)CCC2`, the concentration for 50% growth inhibition (GI50) in the assay on HeLa is 6800 nM; in assay [1], 12200 nM; in the assay on MDA-MB-231 it was under 10 nM; in assay [2] it was 7800 nM.
The corresponding values for `COc1cc(/C=N\NC(=O)C2=C(Cl)c3cc(C)c(C)cc3CCC2)cc(OC)c1OC` are 21000 nM, 5800 nM, 1200 nM and 4100 nM.
On to `COc1cc(C(=O)N/N=C/C2=C(Cl)c3ccccc3CCC2)c([N+](=O)[O-])cc1OC`, for which the GI50 is 1100 nM in the assay with HeLa, 10900 nM in assay [1], over 100000 nM in the assay with MDA-MB-231 and 2700 nM in assay [2].
The corresponding values for `Cc1cc2c(cc1C)C(Cl)=C(C(=O)N/N=C\c1ccc(Cl)cc1)CCC2` are 1600 nM, 440 nM, 410 nM and 18300 nM.
On to `COc1cc(C(=O)N/N=C/C2=C(Cl)c3cc(C)c(C)cc3CCC2)cc(OC)c1OC`, for which the GI50 in the assay on HeLa is 760 nM; in assay [1] it was 2300 nM; with MDA-MB-231, 460 nM; in assay [2], 20900 nM.
For the molecule `Cc1cc2c(cc1C)C(Cl)=C(/C=N/NC(=O)c1cccnc1)CCC2`, the concentration for 50% growth inhibition (GI50) came out at 650 nM in the assay with HeLa, 1600 nM in assay [1], 5400 nM with MDA-MB-231 and 8400 nM in assay [2].
The corresponding values for `Cc1ccc(C(=O)N/N=C/C2=C(Cl)c3ccccc3CCC2)cc1` are 300 nM, 10000 nM, 710 nM and 300 nM.
For `COc1cccc(/C=N\NC(=O)C2=C(Cl)c3ccccc3CCC2)c1`, the GI50 in the assay on HeLa is 15600 nM; in assay [1] it was under 10 nM; in the assay on MDA-MB-231, 300 nM; in assay [2], under 10 nM.
Turning to `O=C(N/N=C/C1=C(Cl)c2ccccc2CCC1)c1cccc(Cl)c1`, the 50% growth inhibitory concentration (GI50) with HeLa was determined as 19200 nM; in assay [1], 78400 nM; in the assay with MDA-MB-231, 16300 nM; in assay [2], 27300 nM.
Turning to `COc1cccc(C(=O)N/N=C/C2=C(Cl)c3cc(C)c(C)cc3CCC2)c1C`, the GI50 in the assay with HeLa came to 300 nM; in assay [1], 2000 nM; in the assay with MDA-MB-231, 10000 nM; in assay [2] it was 170 nM.
The corresponding values for `Cc1cc2c(cc1C)C(Cl)=C(/C=N\NC(=O)C1=C(Cl)c3cc(C)c(C)cc3CCC1)CCC2` are over 100000 nM, 6000 nM, 78200 nM and 59900 nM.
Take `COc1cc(C(=O)N/N=C/C2=C(Cl)c3ccccc3CCC2)cc(OC)c1OC`: the concentration for 50% growth inhibition (GI50) was 770 nM in the assay with HeLa, 69300 nM in assay [1], 30000 nM in the assay with MDA-MB-231 and 75600 nM in assay [2].
On to `COc1cccc(C(=O)N/N=C/C2=C(Cl)c3ccccc3CCC2)c1C`, for which the GI50 was found to be 9200 nM in the assay with HeLa, 700 nM in assay [1], 290 nM in the assay on MDA-MB-231 and 26500 nM in assay [2].
As for `O=C(N/N=C\C1=C(Cl)c2ccccc2CCC1)C1=C(Cl)c2ccccc2CCC1`, the GI50 in the assay with HeLa amounted to 1000 nM; in assay [1], 1600 nM; with MDA-MB-231, 3000 nM; in assay [2] it was 2200 nM.
As to `O=C(N/N=C/C1=C(Cl)c2ccccc2CCC1)c1cccc2ccccc12`, the GI50 amounted to 4700 nM with HeLa, 13600 nM in assay [1], 12100 nM with MDA-MB-231 and 9200 nM in assay [2].
For `COc1cc(/C=N\NC(=O)C2=C(Cl)c3ccccc3CCC2)cc(OC)c1OC`, the GI50 with HeLa is 8200 nM; in assay [1], 1400 nM; in the assay on MDA-MB-231 it was under 10 nM; in assay [2], under 10 nM.
Regarding `O=C(N/N=C/C1=C(Cl)c2ccccc2CCC1)c1cccc(I)c1`, the GI50 with HeLa worked out at 6300 nM; in assay [1] it was 1600 nM; in the assay on MDA-MB-231 it was 55200 nM; in assay [2], 7600 nM.
In the case of `O=C(N/N=C\c1ccc(Cl)cc1)C1=C(Cl)c2ccccc2CCC1`, the GI50 with HeLa was 2300 nM; in assay [1], under 10 nM; with MDA-MB-231 it was 260 nM; in assay [2], 140 nM.
Take `Nc1ccccc1C(=O)N/N=C/C1=C(Cl)c2ccccc2CCC1`: the GI50 in the assay with HeLa was over 100000 nM; in assay [1], 65100 nM; in the assay with MDA-MB-231, 5000 nM; in assay [2], 51000 nM.
As for `O=C(N/N=C/C1=C(Cl)c2ccccc2CCC1)c1ccc([N+](=O)[O-])cc1`, the GI50 in the assay with HeLa was over 100000 nM; in assay [1], 2300 nM; with MDA-MB-231 it was 3800 nM; in assay [2], 26000 nM.
